Assays:
[1] = target: T1, BadM (Rhodopseudomonas palustris, UniProt O07465); test: EMSA with 6-FAM-labelled badDEFGAB promoter probe; settings: 72 nM BadM, 12 nM probe; 10 mM compound, blocks DNA binding; no effect at 5 mM
T1 construct: plasmid pRpBadM8, expressed in E. coli C41(lambda-DE3) pka12::kan+, purified; tag details in Text S1

[2] = target: T2, MmBadL (Paramagnetospirillum magneticum, UniProt Q2W1S9); test: [[…]-14C]acetyl-CoA transfer, TLC phosphor imaging; type: biochemical; settings: co-substrate acetyl-CoA
T2 construct: gene amb3392; plasmid pMmBadL2, expressed in E. coli C41(lambda-DE3) pka12::kan+, purified; tag details in Text S1

[3] = target: T3, GmBadL (Geobacter metallireducens, UniProt Q39TU9); test: [[…]-14C]acetyl-CoA transfer, TLC phosphor imaging; type: biochemical; settings: co-substrate acetyl-CoA
T3 construct: gene Gmet_2096; plasmid pGmBadL1, expressed in E. coli C41(lambda-DE3) pka12::kan+, purified; tag details in Text S1

[4] = target: T4, BadM (Rhodopseudomonas palustris) (UniProt O07465); test: EMSA; settings: 25 µL; Tris 20 mM pH 7.5 (at 25°C), KCl 50 mM, DTT 1 mM, glycerol (rest of buffer not in the material); probe 12 nM (0.303 pmol), BadM 72 nM (1.8 pmol) …
T4 sequence: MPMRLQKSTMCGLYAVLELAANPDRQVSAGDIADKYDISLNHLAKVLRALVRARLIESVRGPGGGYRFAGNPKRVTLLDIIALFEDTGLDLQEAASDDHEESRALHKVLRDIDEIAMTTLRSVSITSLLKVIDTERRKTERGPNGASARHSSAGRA

T2 sequence (Q2W1S9 entry or part of it): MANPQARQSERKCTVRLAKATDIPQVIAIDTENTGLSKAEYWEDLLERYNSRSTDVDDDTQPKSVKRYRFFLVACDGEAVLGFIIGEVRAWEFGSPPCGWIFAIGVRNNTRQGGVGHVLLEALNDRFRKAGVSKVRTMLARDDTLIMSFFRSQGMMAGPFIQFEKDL
T3 sequence (Q39TU9 entry or part of it): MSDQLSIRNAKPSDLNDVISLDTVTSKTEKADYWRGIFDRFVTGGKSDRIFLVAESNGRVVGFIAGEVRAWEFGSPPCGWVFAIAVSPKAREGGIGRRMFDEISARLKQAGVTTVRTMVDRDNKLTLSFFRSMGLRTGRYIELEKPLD

Compound: CC(=O)Nc1ccccc1C(=O)O [2-ABA^Ac, 2-acetamidobenzoate]
- EMSA with 6-FAM-labelled badDEFGAB promoter probe [1]: addition of 2-acetamidobenzoate blocked binding of BadM to its DNA target

Compound: Nc1ccc(C(=O)O)cc1 [4-ABA, 4-aminobenzoate]
- [1-14C]acetyl-CoA transfer, TLC phosphor imaging [2]: MmBadL and GmBadL acetylated 4-aminobenzoate producing 4-acetamidobenzoate
- [1-14C]acetyl-CoA transfer, TLC phosphor imaging [3]: MmBadL and GmBadL acetylated 4-aminobenzoate producing 4-acetamidobenzoate

Compound: GTGATGCGGCCTGTCGAGCATGCCGGTCGTCCTCCCTGCCCGGCGGCTCTGCCGGGTCGCGCTGCCGGCCATTTTCCGGCCCAGCGATTTAAATGTAATCTAGTATCGGAATGCGATAATTAATTTGATGCGGATCAAATTTGGCAAAGGCACAGCCGACACGGGCCGACGCCGGCTCGTAGTCGGGAGGCTCAGATATCGATCGCGATCTT (double strand) [badDEFGAB promoter / badCD intergenic probe]
- binding [4]: binds
